The record followed here is patent US20260022142A1, “MACROCYCLIC IMMUNOMODULATORS” (Bristol-Myers Squibb Company, priority 2022, published 2026).

Bridge positions count the residues as written; N and C are the ends. Square brackets hold non-standard residues; d marks the D form. Peptide text beside a SMILES is read from it. * marks the point of attachment. Phe(4-COOH) = N[C@@H](Cc1ccc(C(=O)O)cc1)C(=O)O; Bip = N[C@@H](Cc1ccc(-c2ccccc2)cc1)C(=O)O; Phe(3-Me) = Cc1cccc(C[C@H](N)C(=O)O)c1; Cha = N[C@@H](CC1CCCCC1)C(=O)O; Carboxymethyl = O=C(O)C*; Orn = NCCC[C@H](N)C(=O)O; Aun = NCCCCCCCCCCC(=O)O; Dab = NCC[C@H](N)C(=O)O; Dap = NC[C@H](N)C(=O)O; AEEA = NCCOCCOCC(=O)O

In this experiment the target is T1, PD-1/PD-L1 interaction (PE-labeled human PD-L1-Ig binding to Jurkat cell line over-expressing human PD-1) (Homo sapiens, UniProt Q15116).
T1 construct: expressed in transfected cells; host or cells: Jurkat
T1 sequence (Q15116 25-288): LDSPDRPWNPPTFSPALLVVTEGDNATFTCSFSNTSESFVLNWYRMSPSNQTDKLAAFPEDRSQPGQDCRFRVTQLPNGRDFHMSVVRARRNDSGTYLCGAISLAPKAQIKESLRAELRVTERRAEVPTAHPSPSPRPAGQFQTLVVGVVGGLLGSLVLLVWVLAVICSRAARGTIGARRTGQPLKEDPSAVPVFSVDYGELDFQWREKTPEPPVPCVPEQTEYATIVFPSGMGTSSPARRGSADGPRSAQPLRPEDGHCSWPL
The experiment in a line: Jurkat-PD-1 Cell Binding High-Content Screening Assay (CBA). Conditions: Jurkat cell line over-expressing human PD-1; PE-labeled PD-L1-Ig 20 nM final; read-out: Jurkat hPD1-PDL1 IC50. It counts as cell-based. The essentials: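 Binding of fluorescent PD-L1-Ig (phycoerythrin on Ig tag, 20 nM final, 1 h) measured by high-content imaging of fixed, Hoechst-counterstained Jurkat-hPD-1 cells. Compound added 2 h at 37° C beforehand, in DMEM with 10% fetal calf serum.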
`CC(C)C[C@H]1NC(=O)[C@H](CCCN)NC(=O)[C@H](C(C)C)NC(=O)[C@H](Cc2ccc(-c3ccccc3)cc2)NC(=O)[C@H](C(C)C)NC(=O)[C@H](Cc2c[nH]c3ccccc23)NC(=O)[C@H](CC(=O)O)NC(=O)[C@H](Cc2ccc(OCC(=O)O)cc2)NC(=O)[C@H](Cc2ccc(OCC(=O)O)cc2)NC(=O)CSC[C@@H](C(=O)N[C@@H](CCCCN)C(=O)NCCCCCCCCCCC(=O)O)NC(=O)[C@H](CCCN)NC(=O)[C@H](C(C)C)NC(=O)[C@H](CC2CCCCC2)NC(=O)[C@H](CCN)NC1=O` [Compound 2537] ({CH2CO}-Y(Carboxymethyl)Y(Carboxymethyl)DWV[Bip]V[Orn][dL][Dab][Cha]V[Orn]CK[Aun]-OH; thioether N-14): the IC50 stood at 18.9 nM.

`CC(C)C[C@H]1NC(=O)[C@H](CCCN)NC(=O)[C@H](C(C)C)NC(=O)[C@H](Cc2ccc(-c3ccccc3)cc2)NC(=O)[C@H](C(C)C)NC(=O)[C@H](Cc2c[nH]c3ccccc23)NC(=O)[C@H](CC(=O)O)NC(=O)[C@H](Cc2ccc(OCC(=O)O)cc2)NC(=O)[C@H](Cc2ccc(OCC(=O)O)cc2)NC(=O)CSC[C@@H](C(=O)N[C@@H](CCCCN)C(=O)NCCCCCCCCCCC(=O)O)NC(=O)[C@H](CN)NC(=O)[C@H](C(C)C)NC(=O)[C@H](CC2CCCCC2)NC(=O)[C@H](CCN)NC1=O` [Compound 2538] ({CH2CO}-Y(Carboxymethyl)Y(Carboxymethyl)DWV[Bip]V[Orn][dL][Dab][Cha]V[Dap]CK[Aun]-OH; thioether N-14): the IC50 stood at 13.6 nM.

On to `CC(C)C[C@H]1NC(=O)[C@H](CCCN)NC(=O)[C@H](C(C)C)NC(=O)[C@H](Cc2ccc(-c3ccccc3)cc2)NC(=O)[C@H](C(C)C)NC(=O)[C@H](Cc2c[nH]c3ccccc23)NC(=O)[C@H](CC(=O)O)NC(=O)[C@H](Cc2ccc(C(=O)O)cc2)NC(=O)[C@H](Cc2ccc(OCC(=O)O)cc2)NC(=O)CSC[C@@H](C(=O)NCCOCCOCC(=O)N[C@@H](CCN)C(=O)NCCCCCCCCCCC(=O)O)NC(=O)[C@H](CCCCN)NC(=O)[C@H](C(C)C)NC(=O)[C@H](CC2CCCCC2)NC(=O)[C@H](CCN)NC1=O` [Compound 2539] ({CH2CO}-Y(Carboxymethyl)[Phe(4-COOH)]DWV[Bip]V[Orn][dL][Dab][Cha]VKC[AEEA][Dab][Aun]-OH; thioether N-14), for which the IC50 was 5.3 nM.

For `CC(C)C[C@H]1NC(=O)[C@H](CCCN)NC(=O)[C@H](C(C)C)NC(=O)[C@H](Cc2ccc(-c3ccccc3)cc2)NC(=O)[C@H](C(C)C)NC(=O)[C@H](Cc2c[nH]c3ccccc23)NC(=O)[C@H](CC(=O)O)NC(=O)[C@H](Cc2ccc(OCC(=O)O)cc2)NC(=O)[C@H](Cc2ccc(OCC(=O)O)cc2)NC(=O)CSC[C@@H](C(=O)NCCOCCOCC(=O)N[C@@H](CCN)C(=O)NCCCCCCCCCCC(=O)O)NC(=O)[C@H](CCCNC(=N)N)NC(=O)[C@H](C(C)C)NC(=O)[C@H](CC2CCCCC2)NC(=O)[C@H](CCN)NC1=O` [Compound 2540] ({CH2CO}-Y(Carboxymethyl)Y(Carboxymethyl)DWV[Bip]V[Orn][dL][Dab][Cha]VRC[AEEA][Dab][Aun]-OH; thioether N-14), the half-maximal inhibitory concentration (IC50) worked out at 7 nM.

With `CC(C)C[C@H]1NC(=O)[C@H](CCCN)NC(=O)[C@H](C(C)C)NC(=O)[C@H](Cc2ccc(-c3ccccc3)cc2)NC(=O)[C@H](C(C)C)NC(=O)[C@H](Cc2c[nH]c3ccccc23)NC(=O)[C@H](CC(=O)O)NC(=O)[C@H](Cc2ccc(OCC(=O)O)cc2)NC(=O)[C@H](CN)NC(=O)CSC[C@@H](C(=O)NCCOCCOCC(=O)N[C@@H](CCN)C(=O)NCCCCCCCCCCC(=O)O)NC(=O)[C@H](CCCCN)NC(=O)[C@H](C(C)C)NC(=O)[C@H](CC2CCCCC2)NC(=O)[C@H](CCN)NC1=O` [Compound 2541] ({CH2CO}-[Dap]Y(Carboxymethyl)DWV[Bip]V[Orn][dL][Dab][Cha]VKC[AEEA][Dab][Aun]-OH; thioether N-14), the half-maximal inhibitory concentration (IC50) was found to be 7.6 nM.

On to `Cc1cccc(C[C@@H]2NC(=O)[C@H](CC(=O)O)NC(=O)[C@H](Cc3ccc(OCC(=O)O)cc3)NC(=O)[C@H](CN)NC(=O)CSC[C@@H](C(=O)NCCOCCOCC(=O)N[C@@H](CCN)C(=O)NCCCCCCCCCCC(=O)O)NC(=O)[C@H](CN)NC(=O)[C@H](C(C)C)NC(=O)[C@H](CC3CCCCC3)NC(=O)[C@H](CCN)NC(=O)[C@@H](CC(C)C)NC(=O)[C@H](CCCN)NC(=O)[C@H](C(C)C)NC(=O)[C@H](Cc3ccc(-c4ccccc4)cc3)NC(=O)[C@H](C(C)C)NC2=O)c1` [Compound 2542] ({CH2CO}-[Dap]Y(Carboxymethyl)D[Phe(3-Me)]V[Bip]V[Orn][dL][Dab][Cha]V[Dap]C[AEEA][Dab][Aun]-OH; thioether N-14), for which the IC50 turned out to be 4.9 nM.

As for `Cc1cccc(C[C@@H]2NC(=O)[C@H](CC(=O)O)NC(=O)[C@H](Cc3ccc(OCC(=O)O)cc3)NC(=O)[C@H](CN)NC(=O)CSC[C@@H](C(=O)NCCOCCOCC(=O)N[C@@H](CCN)C(=O)NCCCCCCCCCCC(=O)O)NC(=O)[C@H](CCCN)NC(=O)[C@H](C(C)C)NC(=O)[C@H](CC3CCCCC3)NC(=O)[C@H](CCN)NC(=O)[C@@H](CC(C)C)NC(=O)[C@H](CCCN)NC(=O)[C@H](C(C)C)NC(=O)[C@H](Cc3ccc(-c4ccccc4)cc3)NC(=O)[C@H](C(C)C)NC2=O)c1` [Compound 2543] ({CH2CO}-[Dap]Y(Carboxymethyl)D[Phe(3-Me)]V[Bip]V[Orn][dL][Dab][Cha]V[Orn]C[AEEA][Dab][Aun]-OH; thioether N-14), the 50% inhibitory concentration (IC50) is 9.5 nM.

Take `Cc1cccc(C[C@@H]2NC(=O)[C@H](CC(=O)O)NC(=O)[C@H](Cc3ccc(OCC(=O)O)cc3)NC(=O)[C@H](CN)NC(=O)CSC[C@@H](C(=O)NCCOCCOCC(=O)N[C@@H](CCN)C(=O)NCCCCCCCCCCC(=O)O)NC(=O)[C@H](CCCNC(=N)N)NC(=O)[C@H](C(C)C)NC(=O)[C@H](CC3CCCCC3)NC(=O)[C@H](CCN)NC(=O)[C@@H](CC(C)C)NC(=O)[C@H](CCCN)NC(=O)[C@H](C(C)C)NC(=O)[C@H](Cc3ccc(-c4ccccc4)cc3)NC(=O)[C@H](C(C)C)NC2=O)c1` [Compound 2544] ({CH2CO}-[Dap]Y(Carboxymethyl)D[Phe(3-Me)]V[Bip]V[Orn][dL][Dab][Cha]VRC[AEEA][Dab][Aun]-OH; thioether N-14): the IC50 was found to be 10.7 nM.

Consider `CC(C)C[C@H]1NC(=O)[C@H](CCCN)NC(=O)[C@H](C(C)C)NC(=O)[C@H](Cc2ccc(-c3ccccc3)cc2)NC(=O)[C@H](C(C)C)NC(=O)[C@H](Cc2c[nH]c3ccccc23)NC(=O)[C@H](CC(=O)O)NC(=O)[C@H](Cc2ccc(OCC(=O)O)cc2)NC(=O)[C@H](Cc2ccc(OCC(=O)O)cc2)NC(=O)CSC[C@@H](C(=O)NCCOCCOCC(=O)N[C@@H](CCN)C(=O)NCCCCCCCCCCC(=O)O)NC(=O)[C@H](CCCN)NC(=O)[C@H](C(C)C)NC(=O)[C@H](CC2CCCCC2)NC(=O)[C@H](CCN)NC1=O` [Compound 2545] ({CH2CO}-Y(Carboxymethyl)Y(Carboxymethyl)DWV[Bip]V[Orn][dL][Dab][Cha]V[Orn]C[AEEA][Dab][Aun]-OH; thioether N-14), for which the half-maximal inhibitory concentration (IC50) amounted to 7.4 nM.
